These results are taken from patent US8471005B2 (Cephalon, Inc., priority 2008, dated 2013).

Assay [1] deals with T1, JAK2 (Homo sapiens, UniProt O60674).
T1 construct: host or cells: baculovirus expression system
Put plainly: Recombinant Human JAK2 Kinase Assay (TRF). The assay is classed as biochemical. Particulars: JAK2 kinase inhibition, 0.2 μM ATP; read-out: JAK2 Potency. In a few lines: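 Europium-labelled PY100 antibody reported tyrosine phosphorylation of a Neutravidin-captured biotinyl 15-mer peptide by JAK2 (baculovirus-expressed, 15 ng/ml). Conditions: 20 mM HEPES pH 7.2, 0.2 μM ATP, 1 mM MnCl2, 0.1% BSA, DMSO 2.5% final, 20 min at room temperature.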

Assay [2] deals with T2, ALK (Homo sapiens, UniProt Q9UM73).
T2 construct: host or cells: baculovirus expression system
T2 sequence (Q9UM73 19-1620): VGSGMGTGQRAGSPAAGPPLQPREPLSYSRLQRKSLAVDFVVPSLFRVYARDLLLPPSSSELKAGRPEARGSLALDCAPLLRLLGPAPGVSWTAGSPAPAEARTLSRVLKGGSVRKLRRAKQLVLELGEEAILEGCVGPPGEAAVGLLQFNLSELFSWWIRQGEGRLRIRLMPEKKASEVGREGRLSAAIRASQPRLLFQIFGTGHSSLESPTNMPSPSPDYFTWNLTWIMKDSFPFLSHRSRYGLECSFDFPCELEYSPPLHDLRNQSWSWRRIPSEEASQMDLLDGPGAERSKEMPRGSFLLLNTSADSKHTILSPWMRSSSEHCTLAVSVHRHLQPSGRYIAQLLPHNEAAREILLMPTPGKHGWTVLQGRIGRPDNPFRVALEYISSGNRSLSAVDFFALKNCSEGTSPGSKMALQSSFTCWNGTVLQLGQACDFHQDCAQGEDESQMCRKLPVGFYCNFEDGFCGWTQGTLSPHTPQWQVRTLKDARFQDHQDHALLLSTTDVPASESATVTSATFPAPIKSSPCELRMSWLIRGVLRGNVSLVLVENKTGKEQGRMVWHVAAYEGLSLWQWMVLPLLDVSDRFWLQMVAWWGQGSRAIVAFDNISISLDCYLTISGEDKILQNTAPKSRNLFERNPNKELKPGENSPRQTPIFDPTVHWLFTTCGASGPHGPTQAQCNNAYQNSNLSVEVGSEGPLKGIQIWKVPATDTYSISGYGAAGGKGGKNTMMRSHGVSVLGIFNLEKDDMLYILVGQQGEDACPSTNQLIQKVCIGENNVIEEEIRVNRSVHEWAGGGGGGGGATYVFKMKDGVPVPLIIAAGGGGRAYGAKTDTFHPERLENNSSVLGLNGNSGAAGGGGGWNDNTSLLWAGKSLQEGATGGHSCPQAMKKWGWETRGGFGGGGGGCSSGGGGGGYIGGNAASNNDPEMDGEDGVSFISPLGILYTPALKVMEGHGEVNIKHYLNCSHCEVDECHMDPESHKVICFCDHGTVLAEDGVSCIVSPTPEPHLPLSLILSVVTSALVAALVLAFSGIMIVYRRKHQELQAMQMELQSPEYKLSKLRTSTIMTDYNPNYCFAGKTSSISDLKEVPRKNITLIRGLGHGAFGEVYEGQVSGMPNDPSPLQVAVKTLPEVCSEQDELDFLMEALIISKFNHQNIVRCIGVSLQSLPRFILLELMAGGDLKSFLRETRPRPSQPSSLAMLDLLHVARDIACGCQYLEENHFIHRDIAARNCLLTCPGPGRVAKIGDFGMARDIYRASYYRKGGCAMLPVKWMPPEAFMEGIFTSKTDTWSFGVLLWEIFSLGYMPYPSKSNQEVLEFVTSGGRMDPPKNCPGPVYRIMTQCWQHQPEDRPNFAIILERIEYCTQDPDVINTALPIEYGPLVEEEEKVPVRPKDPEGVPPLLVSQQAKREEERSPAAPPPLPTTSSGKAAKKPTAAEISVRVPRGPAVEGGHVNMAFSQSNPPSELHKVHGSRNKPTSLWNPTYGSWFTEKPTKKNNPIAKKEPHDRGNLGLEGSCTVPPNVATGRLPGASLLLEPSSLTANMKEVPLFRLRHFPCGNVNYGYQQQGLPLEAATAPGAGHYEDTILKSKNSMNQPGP
As to the kind of experiment: ALK Kinase Assay (ELISA/TRF, PLC-γ substrate). To be noted: ALK kinase inhibition, 1 μM ATP; read-out: ALK Potency. The assay is classed as biochemical. In outline:
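First, plates are coated with substrate (phospholipase C-γ, 10 μg/mL, TBS). Next, 30 ng/ml ALK initiates phosphorylation for 15 min at 37° C. Then Eu-N1 PT66 antibody is added for detection, and a nonlinear dose-response fit of percent inhibition yields IC50.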

Structures are written as SMILES. Some results are limits rather than exact numbers.

T1 sequence (O60674 whole entry): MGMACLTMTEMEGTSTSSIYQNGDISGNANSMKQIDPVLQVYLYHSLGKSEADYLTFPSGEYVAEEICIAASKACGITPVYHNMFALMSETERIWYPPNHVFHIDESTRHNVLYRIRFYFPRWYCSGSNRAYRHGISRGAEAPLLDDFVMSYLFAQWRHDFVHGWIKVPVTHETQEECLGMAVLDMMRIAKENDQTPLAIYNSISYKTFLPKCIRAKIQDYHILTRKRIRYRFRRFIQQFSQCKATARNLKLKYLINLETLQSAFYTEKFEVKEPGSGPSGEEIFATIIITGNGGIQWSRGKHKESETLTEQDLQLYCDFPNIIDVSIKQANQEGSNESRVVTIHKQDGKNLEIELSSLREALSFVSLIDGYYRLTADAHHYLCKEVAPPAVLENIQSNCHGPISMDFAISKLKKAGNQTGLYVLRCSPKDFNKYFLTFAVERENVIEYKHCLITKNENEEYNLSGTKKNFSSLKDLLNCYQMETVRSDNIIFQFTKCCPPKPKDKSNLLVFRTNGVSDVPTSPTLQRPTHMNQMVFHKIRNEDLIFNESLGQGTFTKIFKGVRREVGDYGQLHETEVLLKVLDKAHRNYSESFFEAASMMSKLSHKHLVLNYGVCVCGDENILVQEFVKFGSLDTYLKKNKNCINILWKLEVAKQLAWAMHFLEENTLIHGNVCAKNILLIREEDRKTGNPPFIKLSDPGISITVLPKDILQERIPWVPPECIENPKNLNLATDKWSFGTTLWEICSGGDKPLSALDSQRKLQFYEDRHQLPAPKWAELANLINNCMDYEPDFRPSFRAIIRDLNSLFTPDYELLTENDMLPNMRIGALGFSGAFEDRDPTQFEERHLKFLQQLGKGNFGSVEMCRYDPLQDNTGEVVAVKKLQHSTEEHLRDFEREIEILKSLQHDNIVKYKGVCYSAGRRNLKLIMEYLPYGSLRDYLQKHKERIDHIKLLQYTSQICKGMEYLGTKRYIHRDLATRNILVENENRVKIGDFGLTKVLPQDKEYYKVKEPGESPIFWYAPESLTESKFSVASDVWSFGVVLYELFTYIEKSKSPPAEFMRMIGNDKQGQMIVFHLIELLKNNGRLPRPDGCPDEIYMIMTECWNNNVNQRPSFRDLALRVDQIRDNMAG

For the compound `COc1cc(N(C)C(=O)CN2CCOCC2)ccc1Nc1ncc2ccc(-c3ccccc3N(C)S(C)(=O)=O)n2n1` [Example 473, N-(4-{7-[2-(Methanesulfonyl-methyl-amino)-phenyl]-pyrrolo[2,1-f][1,2,4]triazin-2-ylamino}-3-methoxy-phenyl)-N-methyl-2-morpholin-4-yl-acetamide], the values for the IC50 in assay [1] and in assay [2] were 1000 to 10000 nM and less than 100 nM, respectively.
In the same order, the values of `COc1cc(N(C)C(=O)CN2CCN(C)CC2)ccc1Nc1ncc2ccc(-c3ccccc3OC)n2n1` [Example 474, N-{3-Methoxy-4-[7-(2-methoxy-phenyl)-pyrrolo[2,1-f][1,2,4]triazin-2-ylamino]-phenyl}-N-methyl-2-(4-methyl-piperazin-1-yl)-acetamide] are 1000 to 10000 nM and less than 100 nM.
Consider `COc1cc(N2CCC(N(C)C)CC2)ccc1Nc1ncc2ccc(-c3ccccc3N(C)S(C)(=O)=O)n2n1` [Example 475, N-(2-{2-[4-(4-Dimethylamino-piperidin-1-yl)-2-methoxy-phenylamino]-pyrrolo[2,1-f][1,2,4]triazin-7-yl}-phenyl)-N-methyl-methanesulfonamide], for which the IC50 in assay [1] is 100 to 1000 nM; in assay [2], less than 100 nM.
In the same order, the values of `COc1cc(N2CCC(N(C)C)CC2)ccc1Nc1ncc2ccc(-c3ccccc3OC)n2n1` [Example 476, [4-(4-Dimethylamino-piperidin-1-yl)-2-methoxy-phenyl]-[7-(2-methoxy-phenyl)-pyrrolo[2,1-f][1,2,4]triazin-2-yl]-amine] are less than 100 nM and less than 100 nM.
In the same order, the values of `COc1cc(N2CCC(N(C)C)CC2)ccc1Nc1ncc2ccc(-c3ccc(S(C)(=O)=O)cc3)n2n1` [Example 477, [4-(4-Dimethylamino-piperidin-1-yl)-2-methoxy-phenyl]-[7-(4-methanesulfonyl-phenyl)-pyrrolo[2,1-f][1,2,4]triazin-2-yl]-amine] are less than 100 nM and less than 100 nM.
In the same order, the values of `COc1cc(N2CCC(N3CC[C@@H](O)C3)CC2)ccc1Nc1ncc2ccc(-c3ccccc3N(C)S(C)(=O)=O)n2n1` [Example 478, N-[2-(2-{4-[4-((R)-3-Hydroxy-pyrrolidin-1-yl)-piperidin-1-yl]-2-methoxy-phenylamino}-pyrrolo[2,1-f][1,2,4]triazin-7-yl)-phenyl]-N-methyl-methanesulfonamide] are less than 100 nM and less than 100 nM.
`COc1cc(N2CCC(N3CC[C@@H](O)C3)CC2)ccc1Nc1ncc2ccc(-c3ccccc3OC)n2n1` [Example 479, (R)-1-(1-{3-Methoxy-4-[7-(2-methoxy-phenyl)-pyrrolo[2,1-f][1,2,4]triazin-2-ylamino]-phenyl}-piperidin-4-yl)-pyrrolidin-3-ol]: the IC50 in assay [1] and in assay [2] was less than 100 nM throughout.
Consider `COc1cc(N2CCC(N3CCCC3)CC2)ccc1Nc1ncc2ccc(-c3ccccc3N(C)S(C)(=O)=O)n2n1` [Example 480, N-(2-{2-[2-Methoxy-4-(4-pyrrolidin-1-yl-piperidin-1-yl)-phenylamino]-pyrrolo[2,1-f][1,2,4]triazin-7-yl}-phenyl)-N-methyl-methanesulfonamide], for which the values for the IC50 in assay [1] and in assay [2] were 1000 to 10000 nM and less than 100 nM, respectively.
In the same order, the values of `COc1cc(N2CCC(N3CCCC3)CC2)ccc1Nc1ncc2ccc(-c3ccccc3OC)n2n1` [Example 481, [7-(2-Methoxy-phenyl)-pyrrolo[2,1-f][1,2,4]triazin-2-yl]-[2-methoxy-4-(4-pyrrolidin-1-yl-piperidin-1-yl)-phenyl]-amine] are 100 to 1000 nM and less than 100 nM.
As for `COc1cc(N2CCC3(CC2)OCCO3)ccc1Nc1ncc2ccc(-c3ccccc3OC)n2n1` [Example 482, [4-(1,4-Dioxa-8-aza-spiro[4.5]dec-8-yl)-2-methoxy-phenyl]-[7-(2-methoxy-phenyl)-pyrrolo[2,1-f][1,2,4]triazin-2-yl]-amine], the IC50 in assay [1] and in assay [2] was 100 to 1000 nM in each case.
Consider `COc1cc(N2CCC(N3CC[C@H](O)C3)CC2)ccc1Nc1ncc2ccc(-c3ccccc3OC)n2n1` [Example 483, (S)-1-(1-{3-Methoxy-4-[7-(2-methoxy-phenyl)-pyrrolo[2,1-f][1,2,4]triazin-2-ylamino]-phenyl}-piperidin-4-yl)-pyrrolidin-3-ol], for which the IC50 in assay [1] is 100 to 1000 nM; in assay [2] it was less than 100 nM.
In the same order, the values of `COc1cc(Cl)ccc1-c1ccc2cnc(Nc3ccc(N4CCC(C(=O)N5CCN(C)CC5)CC4)cc3)nn12` [Example 484, (1-{4-[7-(4-Chloro-2-methoxy-phenyl)-pyrrolo[2,1-f][1,2,4]triazin-2-ylamino]-phenyl}-piperidin-4-yl)-(4-methyl-piperazin-1-yl)-methanone] are less than 100 nM and less than 100 nM.
In the same order, the values of `CN1CCN(C(=O)C2CCN(c3ccc(Nc4ncc5ccc(-c6ccc(Cl)cc6O)n5n4)cc3)CC2)CC1` [Example 485, (1-{4-[7-(4-Chloro-2-hydroxy-phenyl)-pyrrolo[2,1-f][1,2,4]triazin-2-ylamino]-phenyl}-piperidin-4-yl)-(4-methyl-piperazin-1-yl)-methanone] are less than 100 nM and 100 to 1000 nM.
In the same order, the values of `COc1cc(N2CCC(N3CCOCC3)CC2)ccc1Nc1ncc2ccc(-c3ccc(Cl)cc3OC)n2n1` [Example 486, [7-(4-Chloro-2-methoxy-phenyl)-pyrrolo[2,1-f][1,2,4]triazin-2-yl]-[2-methoxy-4-(4-morpholin-4-yl-piperidin-1-yl)-phenyl]-amine] are less than 100 nM and less than 100 nM.
Consider `COc1cc(CCN2CCN(C)CC2)ccc1Nc1ncc2ccc(-c3ccccc3OC)n2n1` [Example 488, {2-Methoxy-4-[2-(4-methyl-piperazin-1-yl)-ethyl]-phenyl}-[7-(2-methoxy-phenyl)-pyrrolo[2,1-f][1,2,4]triazin-2-yl]-amine], for which the IC50 was 100 to 1000 nM in assay [1] and less than 100 nM in assay [2].
In the same order, the values of `COc1cc(C(=O)N2CCN(C)CC2)ccc1Nc1ncc2ccc(-c3ccccc3OC)n2n1` [Example 489, {3-Methoxy-4-[7-(2-methoxy-phenyl)-pyrrolo[2,1-f][1,2,4]triazin-2-ylamino]-phenyl}-(4-methyl-piperazin-1-yl)-methanone] are 100 to 1000 nM and 100 to 1000 nM.
Turning to `COc1cc(C(=O)N2CCN(C)CC2)ccc1Nc1ncc2ccc(-c3ccccc3N(C)S(C)(=O)=O)n2n1` [Example 490, N-(2-{2-[2-Methoxy-4-(4-methyl-piperazine-1-carbonyl)-phenylamino]-pyrrolo[2,1-f][1,2,4]triazin-7-yl}-phenyl)-N-methyl-methanesulfonamide], the IC50 in assay [1] fell in the range of 1000 to 10000 nM; in assay [2] it was 100 to 1000 nM.
For `COc1cc(CCN2CCN(C)CC2)ccc1Nc1ncc2ccc(-c3ccccc3N(C)S(C)(=O)=O)n2n1` [Example 491, N-[2-(2-{2-Methoxy-4-[2-(4-methyl-piperazin-1-yl)-ethyl]-phenylamino}-pyrrolo[2,1-f][1,2,4]triazin-7-yl)-phenyl]-N-methyl-methanesulfonamide], the figures for the IC50 in assay [1] and in assay [2] were 100 to 1000 nM and less than 100 nM, respectively.
In the same order, the values of `COc1cc(CCN2CCOCC2)ccc1Nc1ncc2ccc(-c3ccccc3OC)n2n1` [Example 492, [2-Methoxy-4-(2-morpholin-4-yl-ethyl)-phenyl]-[7-(2-methoxy-phenyl)-pyrrolo[2,1-f][1,2,4]triazin-2-yl]-amine] are 100 to 1000 nM and less than 100 nM.
In the same order, the values of `COc1cc(CCN2CCOCC2)ccc1Nc1ncc2ccc(-c3ccccc3N(C)S(C)(=O)=O)n2n1` [Example 493, N-(2-{2-[2-Methoxy-4-(2-morpholin-4-yl-ethyl)-phenylamino]-pyrrolo[2,1-f][1,2,4]triazin-7-yl}-phenyl)-N-methyl-methanesulfonamide] are 100 to 1000 nM and less than 100 nM.
In the same order, the values of `COc1ccc(C(=O)N2CCN(C)CC2)cc1Nc1ncc2ccc(-c3ccccc3OC)n2n1` [Example 494, {4-Methoxy-3-[7-(2-methoxy-phenyl)-pyrrolo[2,1-f][1,2,4]triazin-2-ylamino]-phenyl}-(4-methyl-piperazin-1-yl)-methanone] are greater than 10000 nM and 1000 to 10000 nM.
Take `COc1ccc(CN2CCN(C)CC2)cc1Nc1ncc2ccc(-c3ccccc3OC)n2n1` [Example 495, [2-Methoxy-5-(4-methyl-piperazin-1-ylmethyl)-phenyl]-[7-(2-methoxy-phenyl)-pyrrolo[2,1-f][1,2,4]triazin-2-yl]-amine]: the figures for the IC50 in assay [1] and in assay [2] were less than 100 nM and 1000 to 10000 nM, respectively.
In the same order, the values of `COc1ccc(C(=O)N2CCN(C)CC2)cc1Nc1ncc2ccc(-c3ccccc3N(C)S(C)(=O)=O)n2n1` [Example 496, N-(2-{2-[2-Methoxy-5-(4-methyl-piperazine-1-carbonyl)-phenylamino]-pyrrolo[2,1-f][1,2,4]triazin-7-yl}-phenyl)-N-methyl-methanesulfonamide] are greater than 10000 nM and 1000 to 10000 nM.
Take `COc1ccc(CN2CCN(C)CC2)cc1Nc1ncc2ccc(-c3ccccc3N(C)S(C)(=O)=O)n2n1` [Example 497, N-(2-{2-[2-Methoxy-5-(4-methyl-piperazin-1-ylmethyl)-phenylamino]-pyrrolo[2,1-f][1,2,4]triazin-7-yl}-phenyl)-N-methyl-methanesulfonamide]: the IC50 in assay [1] and in assay [2] was 1000 to 10000 nM each time.
As for `COc1ccc(CN2CCOCC2)cc1Nc1ncc2ccc(-c3ccccc3N(C)S(C)(=O)=O)n2n1` [Example 498, N-{2-[2-(2-Methoxy-5-morpholin-4-ylmethyl-phenylamino)-pyrrolo[2,1-f][1,2,4]triazin-7-yl]-phenyl}-N-methyl-methanesulfonamide], the IC50 in assay [1] and in assay [2] was 1000 to 10000 nM each time.
